Reference: patent US4628089A, “Pyrido(2,3-D)pyrimidines” (Southern Research Institute, priority 1985, dated 1986)

What was measured:
[1] = test system: lymphocytic leukemia P388; experiment: Activity against lymphocytic leukemia P388 in mice; assay type: in vivo, mouse (CDF1 mice); details: ip, qd 1-5 days, 10^6 P388 cells ip, CDF1 mice
[2] = test system: Human epidermoid carcinoma cell No. 2; experiment: Cell culture cytotoxicity, inhibition of colony formation after 12 days; assay type: cell-based; details: 288 h, colony formation after 12 days in plastic flask, read-out: ED50 (concentration inhibiting colony formation by 50%)
Excerpt: ^a Human epidermoid carcinoma cell No. 2.
^c Concentrations inhibiting colony formation by 50% after 12 days as
determined in plastic flask.

hypertensive rat = details: L. R. Bennett et al, J. Med. Chem., 24, 382 (1981); cited from earlier work
[3] = test system: mammalian dihydrofolate reductase; details: Grivsky et al., J. Med. Chem., 23, 327 (1980); cited from earlier work
thymidylate synthetase = details: background; cited from earlier work
dihydrofolate reductase = details: background; cited from earlier work

CN(Cc1cnc2nc(N)[nH]c(=O)c2c1)c1ccc(C(=O)N[C@@H](CCC(=O)O)C(=O)O)cc1 [I (R = CH3), N-[4[[(2-amino-4(3H)-oxopyrido[2,3-d]-pyrimidin-6-yl)methyl]methylamino]benzoyl]-L-glutamic acid]
% ILS ([1]; 200 mg/kg): 11% | IC50 [2]: 11.2 µM

Cc1ncc2cc(-c3c(Cl)cccc3Cl)c(N)nc2n1
blood pressure in the hypertensive rat (hypertensive rat): lowered blood pressure

COc1ccc(OC)c(Cc2cnc3nc(N)nc(N)c3c2C)c1
inhibition of mammalian dihydrofolate reductase [3]: potent lipid-soluble inhibitor of mammalian dihydrofolate reductase

CCOC(=O)CC[C@H](NC(=O)c1ccc(NCc2cnc3nc(N)nc(N)c3c2)cc1)C(=O)OCC [VII (R = H; R1 = C2 H5), Diethyl N-[4-[(2,4-diaminopyrido[2,3-d]pyrimidine-6-yl)methylamino]benzoyl]-L-glutamate]
% ILS ([1]; 1 mg/kg): 118% | IC50 [2]: 0.052 µM

CN(Cc1cnc2nc(N)nc(N)c2c1)c1ccc(C(=O)N[C@@H](CCC(=O)O)C(=O)O)cc1 [II (R = CH3), N-[4-[[(2,4-Diaminopyrido[2,3-d]pyrimidine-6-yl)methyl]methylamino]benzoyl]-L-glutamic acid]
30th day survivor ([1]; 4 mg/kg): One | % ILS ([1]; 4 mg/kg): 92% | IC50 [2]: 0.004 µM

Nc1nc2ncc(CNc3ccc(C(=O)N[C@@H](CCC(=O)O)C(=O)O)cc3)cc2c(=O)[nH]1 [I (R = H), N-[4-[(2-Amino-4(3H)-oxopyrido[2,3-d]pyrimidin-6-yl)methylamino]benzoyl]-L-glutamic Acid]
% ILS ([1]; 100 mg/kg): 17% | IC50 [2]: 6.1 µM

C#CCN(Cc1ccc2nc(N)nc(O)c2c1)c1ccc(C(=O)N[C@@H](CCC(=O)O)C(=O)O)cc1 [5,8-dideaza-10-propargylfolic acid, N-[4-[N-[(2-amino-4-hydroxy-6-quinazolinyl)methyl]prop-2-ynylamino]benzoyl]-L-glutamic acid]
inhibition of thymidylate synthetase (thymidylate synthetase): potent inhibitor of thymidylate synthetase

CN(Cc1cnc2nc(N)nc(N)c2n1)c1ccc(C(=O)N[C@@H](CCC(=O)O)C(=O)O)cc1 [Methotrexate, reference compound]
IC50 [2]: 0.001 µM | inhibition of dihydrofolate reductase (dihydrofolate reductase): Powerful dihydrofolate reductase inhibitors

Nc1nc(N)c2cc(CNc3ccc(C(=O)N[C@@H](CCC(=O)O)C(=O)O)cc3)cnc2n1 [II (R = H), N-[4-[(2,4-Diaminopyrido[2,3-d]pyrimidine-6-yl)methylamino]benzoyl]-L-glutamic acid]
IC50 [2]: 0.013 µM
